Columns and labels:
blood cell fraction = assay: TDR-test in vitro, blood of patient B. (Example 2); assay type: cell-based, human; details: for reduction TDR: patient B. blood, after 24 hours of incubation
Procedure: Individual selection of anticancer chemotherapy was based on testing the dynamics of TDR in blood with cytostatics—Etoposide (in single therapeutic doses 80-100-120 mg/m2), Cisplatin (25-50-75-100 mg/m2), Carboplatin (150-300-450 mg/m2), Gemcitabine (800-1000-1200 mg/m2), Navelbine (25-30-35 mg/m2), Doxorubicin (20-30-40 mg/m2), Epidoxorubicin (50-70-90 mg/m2), Mitomycin C (4-6-8 mg/m2).

whole blood = assay: TDR-test in vitro, blood of patient G. (Example 1); assay type: cell-based, human; details: for reduction TDR: after 24 hours of incubation
patient's blood = assay: TDR-test in vitro, blood of patient M. (Example 4); details: various doses, 1, 2 and 24 hours
Procedure: Therefore, we first proposed to take, in fact, it is a dynamic integrated assessment test “in vitro” level of nonspecific resistance to therapeutic agents during interaction with the blood of the patient. Selection of optimal treatments, their doses and combinations proposed to control the TDR dynamics within 24-72 hours, with some time intervals. The choice of temporary interval for determination the TDR dynamic is defined of main stage of the biochemical interaction of medicine (or non-drug therapeutic influence) with blood of the patient in vitro (phase 1—induction of biochemical reactions within the first 10-40 minutes, 2nd—for 1-3 hours, 3rd—within 24-72 hours). Therefore, TDR is expedient to record in intervals of precisely these three main stages of the induced signal transduction and protein synthesis (30-60 minutes, 2-3 hours, 24-72 hours after the start of testing).

[1] = tested on: Chronic obstructive bronchitis; assay: Treatment of patient M.; assay type: in vivo, human; details: endobronchial 250 mg followed by inductothermy 30 minutes, 1 treatment per day, 10 procedures, 2 weeks
Procedure: Based on the results of investigations the patient was assigned to a combination of antibiotic Cefazolin and inductothermy: endobronchial administration of Cefazolin 250 mg and immediately after this session inductothermy the projection of the large bronchi in the anterior-posterior direction with opposing fields of the two vehicles “Magniterm” for 30 minutes.

[2] = tested on: microflora of the respiratory tract; assay: Sputum sample sensitivity to antibiotics (antibiotikogramma); assay type: cell-based; details: sputum sample of patient M.
[3] = tested on: Chronic rhinitis of allergic origin, chronic bronchitis; assay: Treatment of patient F.; assay type: in vivo, human; details: before individual testing
Procedure: Diagnosis: “Chronic rhinitis of allergic origin, chronic bronchitis, allergic component in the acute stage.” In history: positive allergic reactions to penicillin antibiotics, the lack of reaction to tetracycline antibiotics. […] Doxycycline is used in doses of 100 mg and 200 mg on admission; when calculating the duration of induktothermy effect was adopted by the duration of the patient's blood sample for 2 seconds, which corresponds to the length of the actual procedure, 25-30 minutes.

N.N.O=C([O-])C1(C(=O)[O-])CCC1.[Pt+2] [Carboplatin]
reduction TDR (blood cell fraction; dose 350 mg/m2): 27%
reduction TDR (whole blood; dose 450 mg/m2): 36%

Cc1nnc(SCC2=C(C(=O)O)N3C(=O)[C@@H](NC(=O)Cn4cnnn4)[C@H]3SC2)s1 [Cefazolin]
change of TDR in blood samples during the incubation (patient's blood): progressive decrease
clinical outcome [1]: sustained remission of chronic bronchitis
sensitivity of the microflora to the antibiotic [2]: highly sensitive

N.N.[Cl][Pt][Cl] [Cisplatin]
reduction TDR (blood cell fraction; dose 100 mg/m2): 32%
reduction TDR (whole blood; dose 75 mg/m2): 32%

O=P1(N(CCCl)CCCl)NCCCO1 (stereo not drawn) [Cyclophosphamide]
reduction TDR (whole blood; dose 600 mg/m2): 30%

CN1CCc2c(c3ccccc3n2Cc2ccccc2)C1 [Diazolin]
efficiency of conventional therapy [3]: low efficiency

CC[C@H]1OC(=O)[C@H](C)[C@@H](O[C@H]2C[C@@](C)(OC)[C@@H](O)[C@H](C)O2)[C@H](C)[C@@H](O[C@@H]2O[C@H](C)C[C@H](N(C)C)[C@H]2O)[C@](C)(O)C[C@@H](C)C(=O)[C@H](C)[C@@H](O)[C@]1(C)O [Erythromycin]
efficiency of conventional therapy [3]: low efficiency

COc1cc([C@@H]2c3cc4c(cc3[C@@H](O[C@@H]3O[C@@H]5CO[C@@H](C)O[C@H]5[C@H](O)[C@H]3O)[C@H]3COC(=O)[C@H]23)OCO4)cc(OC)c1O [Etoposide]
reduction TDR (blood cell fraction; dose 120 mg/m2): 21%

CC(=O)N[C@H]1[C@H](O[C@H]2[C@H](O[C@H](C)C(=O)N[C@@H](C)C(=O)N[C@H](CCC(=O)O)C(N)=O)[C@@H](NC(C)=O)C(O)O[C@@H]2CO)O[C@H](CO)[C@@H](O)[C@@H]1O (stereo partly drawn) [GMDP, glucosomuramyldipeptide]
increase in TDR compared with the control (blood cell fraction; patient B. blood cell fraction, after 1 hour of incubation, dose 50 mg): 78%
increase in TDR (blood cell fraction; patient B. blood cell fraction, after 24 h of incubation, dose 10 mg): 228%
TDR increase compared to control (whole blood; 24 h incubation, dose 5 mg): 64%

Nc1ccn([C@@H]2O[C@H](CO)[C@@H](O)C2(F)F)c(=O)n1 [Gemcitabine]
reduction TDR (blood cell fraction; dose 1200 mg/m2): 30%

CCC1=C[C@@H]2CN(C1)Cc1c([nH]c3ccccc13)[C@@](C(=O)OC)(c1cc3c(cc1OC)N(C)[C@H]1[C@@](O)(C(=O)OC)[C@H](OC(C)=O)[C@]4(CC)C=CCN5CC[C@]31[C@@H]54)C2 [Navelbine]
reduction TDR (blood cell fraction; dose 25 mg/m2): 20%

CC(=O)O[C@H]1C(=O)[C@@]2(C)[C@H]([C@H](OC(=O)c3ccccc3)[C@]3(O)C[C@H](OC(=O)[C@H](O)[C@@H](NC(=O)c4ccccc4)c4ccccc4)C(C)=C1C3(C)C)[C@]1(OC(C)=O)CO[C@@H]1C[C@@H]2O [Paclitaxel]
reduction TDR (blood cell fraction; dose 190 mg/m2): 25%
reduction TDR (whole blood; dose 175 mg/m2): 28%

— patent US20140234888A1, “Method for Improved Selection of Therapeutic Agents” (priority 2013, published 2014)
